The source of these data is a melting point compilation (Tetko et al.; mined from patent text by program, amines drawn as free bases though some values may be those of a salt).

With `Nc1cnn(-c2cccc(C(F)(F)F)c2)c(=O)c1-c1cccc(C(F)(F)F)c1`, the melting point fell in the range of 68 to 70 °C. `COC(=O)c1cccc(S(=O)(=O)Cl)c1C` displayed a melting point of 46.5 to 50 °C. Turning to `O=Cc1cc(Cl)c2c(c1)CCCO2`, the melting point worked out at 51 °C.

`Fc1ccccc1CC[C@H]1CNCCN1` showed a melting point of 94 to 99 °C. With `CC1=CC(c2cccc(OC(F)(F)F)c2)C2=C(CCCC2=O)N1` (configuration not stated), the melting point is 144 to 146 °C. For `CC(C)OC(=O)c1cc(-n2c(=O)cc(C(F)(F)F)[nH]c2=O)c(F)cc1Cl`, the melting point lay in the range of 127 to 129 °C. With `O=S1CCc2nn(-c3ccc(Cl)cc3F)c(Cl)c2C1` (configuration not stated), the melting point was in the range of 119 to 122 °C. With `CCn1cc(C(=O)O)c(=O)c2cc(F)c(N3CCCC3)nc21` the figure was 299 to 300 °C. As to `COc1ccc2c(C(=O)c3ccc(OC4CCCCC4n4ccnc4)cc3)c(-c3ccc(OCCN4CCCC4)cc3)sc2c1` (configuration not stated), the melting point was 68 to 78 °C. The compound `CC(C)C(NC(=O)c1ccccc1)C(O)C(F)(F)F` (configuration not stated) gave a melting point of 150 °C. Take `O=C1CCCC2=C1C(c1ccc(S(=O)(=O)c3ccccc3)cc1)C1=C(CCCC1=O)N2`: the melting point is 260 °C. For the compound `COc1cc2cc(COC(C)=O)c(C(=O)OC3OC(CO)C(O)C(O)C3O)c(-c3ccc4c(c3)OCO4)c2cc1OC` (configuration not stated), the melting point was in the range of 127 to 130 °C. `CNS(=O)(=O)c1ccc(Oc2ccc(NC(C)=O)cc2)cc1` had a melting point of 183 to 184 °C.

Compound `Nc1nc(O)c2cc(CN(CCF)c3ccc(C(=O)N[C@@H](CCC(=O)O)C(=O)O)cc3)ccc2n1` showed a melting point of more than 350 °C. In turn, `CCCN(c1ccncc1)n1ccc2cc(OC(=O)NC(C)C)ccc21` had a melting point of 131 to 133 °C. For `CNC(=O)[C@@H]1C[C@@H](OC)CN1S(=O)(=O)c1ccc(Cl)c(COc2cccc3c2NC(C)(C)C=C3n2cncn2)c1Cl`, the melting point stood at 73 °C. Next, `CN1CC=C(c2c[nH]c3ccc(N)cc23)C(F)C1` (configuration not stated): 176 to 178 °C; `C=C(C)c1ccccc1C(=O)O`: 71.6 to 72.5 °C.

`C=C1CCC2C3CCC4CC(O)C(OCC)CC4(C)C3C(=NO)CC12C` (configuration not stated) gave a melting point of 97 to 99 °C. For the compound `COCc1cccc(CC=NO)c1[N+](=O)[O-]`, the melting point was in the range of 92 to 95 °C. As for `Cc1sc(C(N)=O)c2c1-c1c(cnn1Cc1ccccc1)CC2`, the melting point lay within 205 to 206 °C. `O=C=Nc1c(Cl)c(Cl)c(Cl)c(Cl)c1Cl` registered a melting point of 100 to 102 °C. Regarding `CCOC(Cc1ccc(OCCN2c3ccccc3Oc3ccccc32)cc1)C(=O)OC` (configuration not stated), the melting point lay in the range of 88 to 90 °C. With `Cc1cc(C(C)(C)C)c(C)c(O)c1-c1c(C)cc(C(C)(C)C)c(C)c1O` the figure was 103 to 105 °C; with `CC(C)Cn1nc(-c2ccc(F)cc2F)cc(COS(C)(=O)=O)c1=O`, 86.7 to 88.6 °C; with `Cn1ncnc1COc1nn2c(-c3ccccc3F)nncc2c1-c1cccc(C(F)(F)F)c1`, 152 to 155 °C. With `N#CC(=C1CCCN1)c1ccc(-c2ccccc2)cc1` the figure was 168 to 170 °C. The compound `Oc1cccc2c1ccn2CCCCCc1ccccc1` had a melting point of 109 to 110 °C. Next, `CCc1cccc2c3c([nH]c12)C(CC)(CCOC(C)=O)OCC3` (configuration not stated): 126 to 127 °C; `O=c1[nH]ncc2cc(CCc3ccccc3)ccc12`: 190 to 193 °C; `COc1ccc(NCCCCNC(C)=O)c2c1C(=O)c1ccccc1C2=O`: 151 to 153 °C. On to `COc1cc(NC(=O)c2ccc(-c3ccncc3)cc2)cc(N2CCN(C)CC2)c1OC`, for which the melting point lay within 219 to 221 °C. Next, `CCN(CC)CCOc1ccc(Nc2nccc(-c3ccncc3)n2)cc1`: 85 to 87 °C; `Cc1c(CC(=O)O)c2c(F)c(O)ccc2n1C(=O)c1ccc(Cl)cc1`: 187 to 189 °C; `CCOC(=O)C=C1c2ccccc2CC(=O)c2ccccc21`: 56 to 62 °C. `COc1cc(O)c(C(=O)C=Cc2ccc(OCc3ccccc3)c(OC)c2)c(OC)c1` showed a melting point of 131 °C. In the case of `COCC(COC)Oc1cc(Oc2ccc(S(C)(=O)=O)nc2)cc2cc(C3=NCC(CCO)S3)[nH]c12` (configuration not stated), the melting point lay in the range of 69 to 71 °C. For `ON=Cc1cc(F)ccc1Cl`, the melting point was 133 to 134 °C. In the case of `CCC(=O)OC(C)c1ccc(-c2ccc(OCc3ccccc3)cc2)cc1` (single isomer, unassigned; (+)), the melting point is 125 °C. Turning to `CC(C)(C)c1ccn(-c2ccc(C(=O)c3cccc4c3Nc3ncccc3CN4)c(C(F)(F)F)c2)n1`, the melting point fell in the range of 136 to 140 °C. `CC(=O)SCC(Cc1ccccc1)C(=O)Nc1cccc(C(=O)O)c1C` (configuration not stated): the melting point fell in the range of 162 to 163 °C.

In turn, `COc1ccc([C@@H]2CN(C)CC[C@@H]2NC(=O)c2ccc(C)cc2)cc1OC` (relative stereo) had a melting point of 145 to 146 °C.

`Nc1c([N+](=O)[O-])cc([N+](=O)[O-])c2c1CCCC2`: the melting point lay within 175 to 176 °C.

For the compound `O=Cc1ccc(-c2nc(Oc3ccccc3)cc(Oc3ccccc3)n2)cc1`, the melting point lay within 143 to 145 °C. Compound `COc1ccc2c(c1)CCC1C2CCC2(C)C1CCC2N(C=O)CCC(C)C` (configuration not stated) came in with a melting point of 106 to 107 °C. `Cc1cccc(/C=C/c2nc(COc3ccc(CCCCc4c[nH]c(CC(O)CO)n4)cc3)co2)c1` (configuration not stated): the melting point was in the range of 102 to 104 °C. Next, `COC[C@](C#N)(C(=O)OC)[C@H](c1ccccc1OC)c1cccc2ccccc12`: 148 to 151 °C; `CCCCCCC(C)(C)c1cc(OC)c(C2=C[C@@H]3CC[C@@]2(C)C3(C)C)c(OC)c1`: 35 to 37 °C; `O=C(NCCC12CC3CC(CC(C3)C1)C2)c1cc(-c2cccnc2C(=O)O)ccc1Cl`: 108 to 111 °C. In turn, `CSC1CC(c2cc(Cl)c(C)c(Cl)c2)=NNC1=O` (configuration not stated) returned a melting point of 112 to 115 °C. Next, `CCCCc1ccc(-c2ccc(-c3ccc(CC)cc3)cc2F)s1`: 37 °C; `O=C(CN1CCC(Cc2ccc(F)cc2)CC1)Nc1ccc2[nH]cnc2c1`: 204 °C; `COC1=C(OC)C(=O)C(CCCCCCCCCCCO)=C(C)C1=O`: 57 °C. In the case of `CC(=O)Nc1nsc2ccc(NS(=O)(=O)c3cc(Cl)ccc3Cl)cc12`, the melting point lay in the range of 169 to 172 °C. Consider `COc1ccc(C2CC(=O)CC(c3ccc(OC)cc3)N2C)cc1` (configuration not stated), for which the melting point fell in the range of 129 to 130 °C. In turn, `COc1ccc(C(CC(=O)NCc2ccccc2)N2C(=O)c3ccccc3C2=O)cc1OC` (configuration not stated) had a melting point of 208 to 210 °C.

`COc1cc(C)c(S(C)=O)cc1O` (configuration not stated) had a melting point of 148 to 150 °C. The compound `COC(=O)Cc1ccc(OCCNC(=O)C2Cc3ccccc3N2S(=O)(=O)c2ccc(-c3ccc(F)cc3)c(C(F)(F)F)c2)cc1` (configuration not stated) had a melting point of 60 °C. `Cc1ccc2c(c1)C(C(=O)Nc1ccccc1)c1ccccc1CO2` (configuration not stated): the melting point fell in the range of 129 to 130 °C. In the case of `CCOC(=O)C(C)=C(CC)NC(=O)Nc1cc(C(=O)OC(C)C)c(Cl)cc1F`, the melting point lay in the range of 132 to 133 °C. As for `FC(F)(F)c1cc(Br)c2cccc(Cl)c2n1`, the melting point lay within 62 to 64 °C. Compound `CP(C)(=O)C1CC(c2ccccc2)=NO1` (configuration not stated) came in with a melting point of 153 °C.

The melting point is the temperature, or range, at which the solid turns liquid.
